In ChEMBL document CHEMBL1201862, “PubChem BioAssay data set” (2004):
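Test compounds were applied to cells in 96-well plates for 48 hours at 5 doses. GI50 = concentration required for 50% inhibition of growth.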 The source made the active and inactive calls. No stated cut-off is given here; in the data, active = GI50 up to about 1.1 µM and inactive = higher.

Legend:
Experiment in all cases: growth of human tumour cells (NCI), 48 h
[1] = tested on: TK-10
[2] = tested on: OVCAR-5
[3] = tested on: NCI-H460
[4] = tested on: LOX IMVI
[5] = tested on: HCC 2998
[6] = tested on: HCT-15
[7] = tested on: PC-3
[8] = tested on: SN12C
[9] = tested on: U-251
[10] = tested on: SK-MEL-28
[11] = tested on: UACC-62
[12] = tested on: NCI-H23
[13] = tested on: MDA-N
[14] = tested on: OVCAR-4
[15] = tested on: EKVX
[16] = tested on: RXF 393
[17] = tested on: HOP-92
[18] = tested on: SF-295
[19] = tested on: Malme-3M
[20] = tested on: ACHN
[21] = tested on: SF-268
[22] = tested on: Hs-578T
[23] = tested on: HCT-116
[24] = tested on: UO-31
[25] = tested on: CAKI-1
[26] = tested on: MDA-MB-231
[27] = tested on: M14
[28] = tested on: HT-29
[29] = tested on: SNB-75
[30] = tested on: OVCAR-3
[31] = tested on: SW-620
[32] = tested on: A549
[33] = tested on: SNB-19
[34] = tested on: KM12
[35] = tested on: UACC-257
[36] = tested on: MDA-MB-435
[37] = tested on: SF-539
[38] = tested on: DU-145
[39] = tested on: NCI/ADR-RES
[40] = tested on: K562
[41] = tested on: A498
[42] = tested on: RPMI-8226
[43] = tested on: IGROV-1
[44] = tested on: HOP-62
[45] = tested on: MCF7
[46] = tested on: BT-549
[47] = tested on: NCI-H522
[48] = tested on: MOLT-4
[49] = tested on: SK-MEL-5
[50] = tested on: 786-0
[51] = tested on: NCI-H226
[52] = tested on: CCRF-CEM
[53] = tested on: SK-OV-3
[54] = tested on: COLO 205
[55] = tested on: OVCAR-8
[56] = tested on: SR
[57] = tested on: HL-60
[58] = tested on: SK-MEL-2

Measured: GI50

CC(C)C(=O)Oc1cc2c(=O)oc3c(OC(=O)C(C)C)c(OC(=O)C(C)C)cc4c(=O)oc(c1OC(=O)C(C)C)c2c34
> 100 µM: [6]
inactive: [1] > 100 µM | [2] > 100 µM | [3] > 100 µM | [4] > 100 µM | [5] > 100 µM | [7] > 100 µM | [8] > 100 µM | [9] > 100 µM | [10] > 100 µM | [11] > 100 µM | [12] > 100 µM | [13] > 100 µM | [14] > 100 µM | [15] > 100 µM | [16] > 100 µM | [17] > 100 µM | [18] > 100 µM | [19] > 100 µM | [20] > 100 µM | [21] > 100 µM | [22] > 100 µM | [23] > 100 µM | [24] > 100 µM | [25] > 100 µM | [26] > 100 µM | [27] > 100 µM | [28] > 100 µM | [29] > 100 µM | [30] > 100 µM | [31] > 100 µM | [32] > 100 µM | [33] > 100 µM | [34] > 100 µM | [35] > 100 µM | [36] > 100 µM | [37] > 100 µM | [38] > 100 µM | [39] > 100 µM | [40] > 100 µM | [41] > 100 µM | [42] > 100 µM | [43] > 100 µM | [44] > 100 µM | [45] > 100 µM | [46] > 100 µM | [47] > 100 µM | [48] > 100 µM | [49] > 100 µM | [50] > 100 µM | [51] > 100 µM | [52] > 100 µM | [53] > 100 µM | [54] > 100 µM | [55] > 100 µM

COc1ccc(N2C(=O)CSC2c2cc(OC)c(OC)c(OC)c2)cc1 (stereo not given)
inactive: [1] 43.2 µM | [2] 22.3 µM | [3] 18.9 µM | [4] 23.1 µM | [5] 16.7 µM | [7] 25.1 µM | [8] 25.1 µM | [9] 18.9 µM | [10] 33.4 µM | [11] 4.71 µM | [12] 25.3 µM | [13] 9.68 µM | [14] 42.5 µM | [15] 28.4 µM | [17] 54.6 µM | [18] 22.6 µM | [19] 23.7 µM | [20] 20.7 µM | [56] 5.41 µM | [57] 17.5 µM | [21] 31.8 µM | [22] 48.6 µM | [23] 16.8 µM | [24] 11.8 µM | [25] 25 µM | [26] 26.5 µM | [58] 33.9 µM | [27] 18.6 µM | [28] 21.6 µM | [30] 25.5 µM | [31] 34 µM | [32] 25.5 µM | [33] 23.2 µM | [34] 15.1 µM | [35] 12.5 µM | [36] 10.9 µM | [37] 32.8 µM | [38] 14.5 µM | [39] 22.2 µM | [40] 11.9 µM | [41] 29 µM | [42] 27.5 µM | [43] 33.7 µM | [45] 37.6 µM | [46] 23.2 µM | [47] 14.1 µM | [48] 21.4 µM | [49] 20.9 µM | [50] 21.4 µM | [51] 62.7 µM | [52] 7.23 µM | [53] 24.2 µM | [54] 25.4 µM | [55] 29.9 µM
16 µM: [6]
